Measured values as given in patent US12600709B2, “Nonpeptide somatostatin type 5 receptor agonists and uses thereof” (Crinetics Pharmaceuticals, Inc., priority 2019, dated 2026).
Like-named read-outs stand apart in the source and are kept apart here.

Experiments:
[1] = target: T1, human somatostatin receptor subtype 5 (Homo sapiens, UniProt P35346); experiment: cAMP assay for SST5R (inhibition of cAMP in CHO-K1 cells); assay type: cell-based; conditions: for EC50: inhibition of cAMP via human SST5 receptor, read-out: SST5 potency; for Fold selectivity for SST5 vs SST2: class symbols, SST5 receptor over SST2 receptor
T1 construct: expressed in transfected cells
T1 sequence (P35346 whole entry): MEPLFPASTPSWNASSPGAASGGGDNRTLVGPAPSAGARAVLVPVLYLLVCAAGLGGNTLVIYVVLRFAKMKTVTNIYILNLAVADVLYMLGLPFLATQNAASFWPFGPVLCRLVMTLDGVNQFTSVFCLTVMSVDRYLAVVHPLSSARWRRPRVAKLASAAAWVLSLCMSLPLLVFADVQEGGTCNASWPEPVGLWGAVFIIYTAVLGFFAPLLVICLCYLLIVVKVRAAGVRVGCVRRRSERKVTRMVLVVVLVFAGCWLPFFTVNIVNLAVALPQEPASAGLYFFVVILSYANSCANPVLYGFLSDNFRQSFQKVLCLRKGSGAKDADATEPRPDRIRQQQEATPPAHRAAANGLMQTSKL
Procedure, shortened: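 CHO-K1 cells stably expressing human SSTR5 were treated 20 min at 37 °C with compounds plus 1.6 μM NKH477 in HBSS, 0.5 mM HEPES pH 7.4, 0.1% BSA, 0.2 mM IBMX. Lysate cAMP measured by HTRF against a standard curve; EC50 from cAMP-versus-concentration plots.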

[2] = target: T2, human somatostatin receptor subtype 2 (Homo sapiens, UniProt P30874); experiment: cAMP assay for SST2R (inhibition of cAMP in CHO-K1 cells); assay type: cell-based; conditions: Table B; inhibition of cAMP via human SST2 receptor; read-out: SST2 potency
T2 construct: expressed in transfected cells
T2 sequence (P30874 whole entry): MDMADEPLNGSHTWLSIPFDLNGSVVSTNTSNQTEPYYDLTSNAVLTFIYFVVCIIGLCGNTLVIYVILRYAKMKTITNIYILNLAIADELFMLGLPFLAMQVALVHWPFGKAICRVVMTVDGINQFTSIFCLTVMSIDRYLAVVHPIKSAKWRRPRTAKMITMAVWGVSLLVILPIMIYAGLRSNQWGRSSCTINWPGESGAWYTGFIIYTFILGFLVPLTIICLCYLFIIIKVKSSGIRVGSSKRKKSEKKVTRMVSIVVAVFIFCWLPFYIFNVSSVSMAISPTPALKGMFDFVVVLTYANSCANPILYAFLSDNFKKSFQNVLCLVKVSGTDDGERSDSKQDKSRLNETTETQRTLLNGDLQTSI
Procedure, shortened: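 CHO-K1 cells stably expressing human SSTR2, plated 4 days prior, treated 20 min at 37° C with 1.6 μM NKH477 plus compound dilutions in HBSS/HEPES pH 7.4/0.1% BSA/0.2 mM IBMX. Lysate cAMP measured by HTRF against standard curve; EC50 from concentration-response.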

SMILES | EC50 ([1]; Table A) [nM] | Fold selectivity for SST5 vs SST2 ([1]; Table B) | EC50 ([1]; Table B) [nM] | EC50 [2] [nM]
C[C@H](NC(=O)c1cncc(-c2cccc3c2cnn3C)c1N1CC[C@](C)(N)C1)C1CC1 [1-162, 4-[(3S)-3-amino-3-methylpyrrolidin-1-yl]-N-[(1S)-1-cyclopropylethyl]-5-(1-methyl-1H-indazol-4-yl)pyridine-3-carboxamide] | < 10 | +++ (+++=>500) | < 10 | > 1000
C[C@H](NC(=O)c1cncc(-c2cccc3c2OC(F)(F)O3)c1N1CC[C@](C)(N)C1)C1CC1 [1-163, 4-[(3S)-3-amino-3-methylpyrrolidin-1-yl]-N-[(1S)-1-cyclopropylethyl]-5-(2,2-difluoro-2H-1,3-benzodioxol-4-yl)pyridine-3-carboxamide] | < 10 | ++ (++=100 to 499) | < 10 | 100 to 1000
COc1ncc(C(=O)N[C@@H](C)C2CC2)c(N2CC[C@](C)(N)C2)c1-c1cc(F)cc(C(F)(F)F)c1 [1-164, 4-[(3S)-3-amino-3-methylpyrrolidin-1-yl]-N-[(1S)-1-cyclopropylethyl]-5-[3-fluoro-5-(trifluoromethyl)phenyl]-6-methoxypyridine-3-carboxamide] | < 10 | +++ (+++=>500) | < 10 | 100 to 1000
COc1ncc(C(=O)N[C@@H](C)C2CC2)c(N2CC[C@](C)(N)C2)c1-c1cccc(OC(F)F)c1 [1-165, 4-[(3S)-3-amino-3-methylpyrrolidin-1-yl]-N-[(1S)-1-cyclopropylethyl]-5-[3-(difluoromethoxy)phenyl]-6-methoxypyridine-3-carboxamide] | < 10 | +++ (+++=>500) | < 10 | 100 to 1000
COc1ncc(C(=O)N[C@@H](C)C2CC2)c(N2CC[C@](C)(N)C2)c1-c1ccnc(C(F)(F)F)c1 [1-166, 4-[(3S)-3-amino-3-methylpyrrolidin-1-yl]-N-[(1S)-1-cyclopropylethyl]-2-methoxy-2′-(trifluoromethyl)-[3,4′-bipyridine]-5-carboxamide] | < 10 | +++ (+++=>500) | < 10 | > 1000
COc1ncc(C(=O)N[C@@H](C)C2CC2)c(N2CC[C@](C)(N)C2)c1-c1cncc(Cl)c1 [1-167, 4-[(3S)-3-amino-3-methylpyrrolidin-1-yl]-5′-chloro-N-[(1S)-1-cyclopropylethyl]-2-methoxy-[3,3′-bipyridine]-5-carboxamide] | < 10 | +++ (+++=>500) | < 10 | > 1000
C[C@H](NC(=O)c1cnc(C#N)c(-c2cccc(OC(F)F)c2)c1N1CC[C@](C)(N)C1)C(F)(F)F [1-168, 4-[(3S)-3-amino-3-methylpyrrolidin-1-yl]-6-cyano-5-[3-(difluoromethoxy)phenyl]-N-[(2S)-1,1,1-trifluoropropan-2-yl]pyridine-3-carboxamide] | < 10 | +++ (+++=>500) | < 10 | 100 to 1000
C[C@H](NC(=O)c1cnc(C#N)c(-c2ccnc(C(F)(F)F)c2)c1N1CC[C@](C)(N)C1)C(F)(F)F [1-169, 4-[(3S)-3-amino-3-methylpyrrolidin-1-yl]-2-cyano-2′-(trifluoromethyl)-N-[(2S)-1,1,1-trifluoropropan-2-yl]-[3,4′-bipyridine]-5-carboxamide] | < 10 | +++ (+++=>500) | < 10 | 100 to 1000
COc1cc(-c2c(C#N)ncc(C(=O)N[C@@H](C)C(F)(F)F)c2N2CC[C@](C)(N)C2)ccn1 [1-170, 4-[(3S)-3-amino-3-methylpyrrolidin-1-yl]-2-cyano-2′-methoxy-N-[(2S)-1,1,1-trifluoropropan-2-yl]-[3,4′-bipyridine]-5-carboxamide] | < 10 | +++ (+++=>500) | < 10 | 100 to 1000
Cc1ncc(C(=O)N[C@@H](C)C(F)(F)F)c(N2CC[C@](C)(N)C2)c1-c1cc(F)cc(OC(F)F)c1 [1-171, 4-[(3S)-3-amino-3-methylpyrrolidin-1-yl]-5-[3-(difluoromethoxy)-5-fluorophenyl]-6-methyl-N-[(2S)-1,1,1-trifluoropropan-2-yl]pyridine-3-carboxamide] | < 10 | +++ (+++=>500) | < 10 | 10 to 100
Cc1ncc(C(=O)NC2CC(F)(F)C2)c(N2CC[C@](C)(N)C2)c1-c1cc(F)cc(OC(F)F)c1 [1-172, 4-[(3S)-3-amino-3-methylpyrrolidin-1-yl]-N-(3,3-difluorocyclobutyl)-5-[3-(difluoromethoxy)-5-fluorophenyl]-6-methylpyridine-3-carboxamide] | < 10 | +++ (+++=>500) | < 10 | 100 to 1000
Cc1ncc(C(=O)N[C@@H](C)C2CC2)c(N2CC[C@](C)(N)C2)c1-c1cc(F)cc(OC(F)F)c1 [1-173, 4-[(3S)-3-amino-3-methylpyrrolidin-1-yl]-N-[(1S)-1-cyclopropylethyl]-5-[3-(difluoromethoxy)-5-fluorophenyl]-6-methylpyridine-3-carboxamide] | < 10 | ++ (++=100 to 499) | < 10 | 100 to 1000
Cc1ncc(C(=O)NC2CCC(F)(F)CC2)c(N2CC[C@](C)(N)C2)c1-c1cc(F)cc(OC(F)F)c1 [1-174, 4-[(3S)-3-amino-3-methylpyrrolidin-1-yl]-N-(4,4-difluorocyclohexyl)-5-[3-(difluoromethoxy)-5-fluorophenyl]-6-methylpyridine-3-carboxamide] | < 10 | +++ (+++=>500) | < 10 | 100 to 1000

The next lines start with the values.

EC50 ([1]; Table A) [nM] | Fold selectivity for SST5 vs SST2 ([1]; Table B) | EC50 ([1]; Table B) [nM] | EC50 [2] [nM] | SMILES
< 10 | +++ (+++=>500) | < 10 | 100 to 1000 | C[C@H](NC(=O)c1cnc(C#N)c(-c2cc(F)cc(F)c2)c1N1C[C@@H](N)[C@H](F)C1)C1CC1 [1-135, 4-[(3R,4R)-3-amino-4-fluoropyrrolidin-1-yl]-6-cyano-N-[(1S)-1-cyclopropylethyl]-5-(3,5-difluorophenyl)pyridine-3-carboxamide]
< 10 | +++ (+++=>500) | < 10 | 100 to 1000 | COc1ncc(C(=O)NC2CC(F)(F)C2)c(N2CC[C@](C)(N)C2)c1-c1cc(F)cc(F)c1 [1-137, 4-[(3S)-3-amino-3-methylpyrrolidin-1-yl]-N-(3,3-difluorocyclobutyl)-5-(3,5-difluorophenyl)-6-methoxypyridine-3-carboxamide]
< 10 | +++ (+++=>500) | < 10 | 100 to 1000 | COc1ncc(C(=O)N[C@@H](C)C2CC2)c(N2CC[C@](C)(N)C2)c1-c1cc(F)cc(C#N)c1 [1-153, 4-[(3S)-3-amino-3-methylpyrrolidin-1-yl]-5-(3-cyano-5-fluorophenyl)-N-[(1S)-1-cyclopropylethyl]-6-methoxypyridine-3-carboxamide]
< 10 | +++ (+++=>500) | < 10 | > 1000 | COc1ncc(C(=O)N[C@@H](C)C2CC2)c(N2CC[C@](C)(N)C2)c1-c1cccc(OC(F)(F)F)c1 [1-154, 4-[(3S)-3-amino-3-methylpyrrolidin-1-yl]-N-[(1S)-1-cyclopropylethyl]-6-methoxy-5-[3-(trifluoromethoxy)phenyl]pyridine-3-carboxamide]
< 10 | +++ (+++=>500) | < 10 | > 1000 | COc1cc(-c2c(C)ncc(C(=O)N[C@@H](C)C3CC3)c2N2CC[C@](C)(N)C2)ccn1 [1-157, 4-[(3S)-3-amino-3-methylpyrrolidin-1-yl]-N-[(1S)-1-cyclopropylethyl]-2′-methoxy-2-methyl-[3,4′-bipyridine]-5-carboxamide]
< 10 | +++ (+++=>500) | < 10 | > 1000 | Cc1ncc(C(=O)N[C@@H](C)C2CC2)c(N2CC[C@](C)(N)C2)c1-c1cncc(Cl)c1 [1-158, 4-[(3S)-3-amino-3-methylpyrrolidin-1-yl]-5′-chloro-N-[(1S)-1-cyclopropylethyl]-2-methyl-[3,3′-bipyridine]-5-carboxamide]
< 10 | +++ (+++=>500) | < 10 | > 1000 | Cc1ncc(C(=O)N[C@@H](C)C2CC2)c(N2CC[C@](C)(N)C2)c1-c1ccnc(C(F)(F)F)c1 [1-159, 4-[(3S)-3-amino-3-methylpyrrolidin-1-yl]-N-[(1S)-1-cyclopropylethyl]-2-methyl-2′-(trifluoromethyl)-[3,4′-bipyridine]-5-carboxamide]
< 10 | +++ (+++=>500) | < 10 | 100 to 1000 | Cc1ncc(C(=O)N[C@@H](C)C2CC2)c(N2CC[C@](C)(N)C2)c1-c1cncc(F)c1 [1-160, 4-[(3S)-3-amino-3-methylpyrrolidin-1-yl]-N-[(1S)-1-cyclopropylethyl]-5′-fluoro-2-methyl-[3,3′-bipyridine]-5-carboxamide]
< 10 | ++ (++=100 to 499) | < 10 | > 1000 | C[C@H](NC(=O)c1cncc(-c2ccc3cnn(C)c3c2)c1N1CC[C@](C)(N)C1)C1CC1 [1-161, 4-[(3S)-3-amino-3-methylpyrrolidin-1-yl]-N-[(1S)-1-cyclopropylethyl]-5-(1-methyl-1H-indazol-6-yl)pyridine-3-carboxamide]
